Source: publication PMC11783400, “Assessment of Potential Drug–Drug Interactions for Novel Oral Melanocortin‐1 Receptor Agonist Dersimelagon” (Pharmacology Research & Perspectives, 2025)

What was measured:
OAT1 = molecular target: T1, OAT1 (Homo sapiens, UniProt Q4U2R8); assay: uptake inhibition in HEK293 cells expressing the transporter; assay type: cell-based
T1 construct: gene SLC22A6; expressed in HEK293 cells
T1 sequence (Q4U2R8 1-563): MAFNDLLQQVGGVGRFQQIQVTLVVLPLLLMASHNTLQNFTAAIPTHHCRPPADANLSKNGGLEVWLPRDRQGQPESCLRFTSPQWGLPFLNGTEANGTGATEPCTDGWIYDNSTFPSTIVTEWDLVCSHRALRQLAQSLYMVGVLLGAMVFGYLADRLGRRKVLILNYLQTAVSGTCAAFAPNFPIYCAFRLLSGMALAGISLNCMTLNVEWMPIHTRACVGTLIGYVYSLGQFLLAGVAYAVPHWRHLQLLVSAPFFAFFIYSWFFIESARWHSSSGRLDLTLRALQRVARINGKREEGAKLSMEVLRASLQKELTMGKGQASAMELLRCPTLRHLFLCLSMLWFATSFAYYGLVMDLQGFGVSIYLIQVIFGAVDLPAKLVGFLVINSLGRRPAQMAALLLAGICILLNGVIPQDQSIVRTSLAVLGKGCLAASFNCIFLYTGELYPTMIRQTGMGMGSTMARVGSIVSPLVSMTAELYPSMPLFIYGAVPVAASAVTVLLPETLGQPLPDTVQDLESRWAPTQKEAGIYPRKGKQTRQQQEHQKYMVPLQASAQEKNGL
From the text: uptake inhibition in HEK293 cells expressing the transporter on OAT1

CYP2B6 = molecular target: T2, CYP2B6 (Homo sapiens, UniProt P20813); assay: CYP activity inhibition in human liver microsomes; assay type: biochemical; details: read-out: IC50 (μM) / Direct inhibition
T2 construct: native enzyme in human liver microsomes
T2 sequence (P20813 1-491): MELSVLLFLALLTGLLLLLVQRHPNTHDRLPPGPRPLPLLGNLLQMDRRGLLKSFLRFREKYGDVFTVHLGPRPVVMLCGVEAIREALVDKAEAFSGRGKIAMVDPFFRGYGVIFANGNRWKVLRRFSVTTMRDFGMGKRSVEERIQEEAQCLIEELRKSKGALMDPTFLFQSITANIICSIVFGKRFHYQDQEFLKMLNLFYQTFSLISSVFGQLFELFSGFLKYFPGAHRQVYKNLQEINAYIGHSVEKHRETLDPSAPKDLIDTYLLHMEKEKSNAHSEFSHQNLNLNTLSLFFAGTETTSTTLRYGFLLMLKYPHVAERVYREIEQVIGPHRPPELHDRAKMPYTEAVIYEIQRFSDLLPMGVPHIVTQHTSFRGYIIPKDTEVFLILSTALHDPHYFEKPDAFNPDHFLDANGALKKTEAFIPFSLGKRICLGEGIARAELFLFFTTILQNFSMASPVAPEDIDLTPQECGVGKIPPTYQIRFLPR
From the text: CYP activity inhibition in human liver microsomes on CYP2B6

MATE2‐K = molecular target: T3, MATE2‐K (Homo sapiens, UniProt Q86VL8); assay: uptake inhibition in HEK293 cells expressing the transporter; assay type: cell-based
T3 construct: gene SLC47A2; expressed in HEK293 cells
T3 sequence (Q86VL8 1-566 isoform Q86VL8-3): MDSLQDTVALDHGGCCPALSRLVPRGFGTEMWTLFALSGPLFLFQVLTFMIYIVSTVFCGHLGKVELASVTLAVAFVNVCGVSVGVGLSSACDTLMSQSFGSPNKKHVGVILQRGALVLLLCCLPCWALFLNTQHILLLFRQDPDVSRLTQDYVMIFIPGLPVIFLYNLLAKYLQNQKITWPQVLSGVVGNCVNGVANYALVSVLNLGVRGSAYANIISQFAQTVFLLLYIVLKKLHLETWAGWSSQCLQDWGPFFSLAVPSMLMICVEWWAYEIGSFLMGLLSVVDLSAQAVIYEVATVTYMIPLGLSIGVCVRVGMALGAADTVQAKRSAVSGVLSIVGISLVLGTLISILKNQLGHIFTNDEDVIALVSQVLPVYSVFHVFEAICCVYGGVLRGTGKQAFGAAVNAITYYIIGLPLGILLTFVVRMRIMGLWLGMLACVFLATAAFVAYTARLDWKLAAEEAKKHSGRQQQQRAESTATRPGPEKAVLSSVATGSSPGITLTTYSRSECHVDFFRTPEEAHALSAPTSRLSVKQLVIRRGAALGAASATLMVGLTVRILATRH
From the text: uptake inhibition in HEK293 cells expressing the transporter on MATE2‐K

- IC50 (OAT1): 71.2 µM
- IC50 (CYP2B6): 48.9 µM
- IC50 (MATE2‐K): > 27.4 µM
Structure (SMILES): COC[C@H]1CN(C(=O)[C@]2(F)CN(C3CCCC3)C[C@H]2c2ccc(OC)cc2)C[C@@H]1c1ccc(C(F)(F)F)cc1N1CCC(C(=O)O)CC1 [dersimelagon]
